One may read the IC50 as the concentration at which inhibition is half-maximal. Higher therefore signals weaker potency.

T1 sequence (Q7Z2W7 whole entry): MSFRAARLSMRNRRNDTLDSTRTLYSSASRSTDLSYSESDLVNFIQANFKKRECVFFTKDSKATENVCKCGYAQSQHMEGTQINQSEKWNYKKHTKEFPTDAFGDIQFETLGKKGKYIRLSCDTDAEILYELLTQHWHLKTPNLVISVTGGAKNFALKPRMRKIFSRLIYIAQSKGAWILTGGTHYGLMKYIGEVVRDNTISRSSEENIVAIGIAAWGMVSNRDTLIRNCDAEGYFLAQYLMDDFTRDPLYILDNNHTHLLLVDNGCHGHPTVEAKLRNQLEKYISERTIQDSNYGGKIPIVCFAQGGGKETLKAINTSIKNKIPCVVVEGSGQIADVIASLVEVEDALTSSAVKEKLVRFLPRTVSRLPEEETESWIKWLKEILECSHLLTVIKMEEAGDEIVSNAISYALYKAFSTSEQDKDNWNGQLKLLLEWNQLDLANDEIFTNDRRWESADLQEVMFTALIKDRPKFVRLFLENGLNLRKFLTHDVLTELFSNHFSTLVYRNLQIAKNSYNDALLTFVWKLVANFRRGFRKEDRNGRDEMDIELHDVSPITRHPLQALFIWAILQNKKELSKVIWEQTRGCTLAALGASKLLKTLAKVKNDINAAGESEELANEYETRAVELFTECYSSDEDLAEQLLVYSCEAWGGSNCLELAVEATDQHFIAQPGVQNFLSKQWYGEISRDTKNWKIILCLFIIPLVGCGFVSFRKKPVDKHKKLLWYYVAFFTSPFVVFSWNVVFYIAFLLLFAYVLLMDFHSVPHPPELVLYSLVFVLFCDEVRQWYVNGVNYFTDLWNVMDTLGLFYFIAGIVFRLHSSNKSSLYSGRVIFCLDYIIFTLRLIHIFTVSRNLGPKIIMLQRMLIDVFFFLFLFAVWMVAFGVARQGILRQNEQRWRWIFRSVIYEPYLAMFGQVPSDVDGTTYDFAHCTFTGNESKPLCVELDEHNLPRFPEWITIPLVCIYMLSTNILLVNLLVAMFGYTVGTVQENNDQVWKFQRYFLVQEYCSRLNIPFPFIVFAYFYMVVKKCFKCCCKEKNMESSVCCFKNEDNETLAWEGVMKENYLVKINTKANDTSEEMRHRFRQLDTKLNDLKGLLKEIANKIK

This test concerns the target T1, human TRPM8 (Homo sapiens, UniProt Q7Z2W7).
T1 construct: expressed in transfected cells
The test is described as follows: Menthol-induced Ca2+ influx in HEK293 cells stably expressing human TRPM8. Type of test: cell-based. Particulars: 30 microM menthol-induced Ca2+ influx, HEK293 cells stably expressing human TRPM8, 11-point dose-response. As for the experimental part: Measurement of the Menthol-Induced Ca^2+ Influx in HEK293 Cells Stably Expressing Human TRPM8
A cell-based Ca^2+ influx assay using HEK293 cells stably expressing human TRPM8 was used to identify the activity of compounds.
HEK293 cells stably expressing human TRPM8 were grown in T175 flasks at 37° C. in a 5% CO2 humidified incubator to about 80% confluence. Media composition consisted of Dulbecco's Modified Eagle Medium (high glucose), 10% fetal calf serum (FCS), 100 units/ml Penicillin, 100 microg/ml Streptomycin and 600 microg/ml Geneticine. At 24 hours prior to assay, cells were seeded in poly-D-lysine coated 384-well plates (BD FALCON) at a density of 30,000 cells per well in culture medium and grown overnight in 5% CO2 at 37° C. On the assay day, growth media was removed and cells were loaded with 0.5 microM Fluo4-AM (Molecular Probes) and 0.005% Pluronic F-127 dissolved in assay buffer (Hank's balanced salt solution (HBSS), 19.4 mM HEPES pH7.4, 2.5 mM Probenecid) for 1 hour at room temperature. After washing with assay buffer, the cells were preincubated with various concentrations of the compounds for 5 min. The changes in intracellular calcium concentration by addition of 30 microM menthol were monitored by the cell imaging technology by Hamamatsu Photonics's Functional Drug Screening System (FDSS).
The IC50 values for compounds of the present invention were determined from 11-point dose-response studies. Curves were generated using the average of duplicate wells for each data point. Finally, the IC50 values are calculated with the best-fit dose curve determined by XLfit (ID Business Solutions Ltd.).
For the compound `O=C(O)c1ccc(S(=O)(=O)N(Cc2ccc3c(cnn3C3CC3)c2)c2ncc(Cl)cc2Cl)c(Cl)c1` [Example 32, 3-Chloro-4-(N-((1-cyclopropyl-1H-indazol-5-yl)methyl)-N-(3,5-dichloropyridin-2-yl)sulfamoyl)benzoic acid], the IC50 was under 1000 nM.

The compound `Cc1cc(C(=O)O)ccc1S(=O)(=O)N(Cc1ccc2c(cnn2C2CC2)c1)c1ncc(C(F)(F)F)cc1Cl` [Example 33, 4-(N-(3-Chloro-5-(trifluoromethyl)pyridin-2-yl)-N-((1-cyclopropyl-1H-indazol-5-yl)methyl)sulfamoyl)-3-methylbenzoic acid] came in with an IC50 of under 1000 nM.

For the compound `Cc1cc(C(=O)O)ccc1S(=O)(=O)N(Cc1ccc2c(cnn2C2CC2)c1)c1ncc(Cl)cc1Cl` [Example 34, 4-(N-((1-Cyclopropyl-1H-indazol-5-yl)methyl)-N-(3,5-dichloropyridin-2-yl)sulfamoyl)-3-methylbenzoic acid], the IC50 was under 1000 nM.

In turn, `Cn1ccc2cc(CN(c3ncc(C(F)(F)F)cc3Cl)S(=O)(=O)c3ccc(C(=O)O)cc3Cl)cnc21` [Example 35, 3-Chloro-4-(N-(3-chloro-5-(trifluoromethyl)pyridin-2-yl)-N-((1-methyl-1H-pyrrolo[2,3-b]pyridin-5-yl)methyl)sulfamoyl)benzoic acid] displayed an IC50 of under 1000 nM.

Compound `Cn1ccc2cc(CN(c3ncc(Cl)cc3Cl)S(=O)(=O)c3ccc(C(=O)O)cc3Cl)cnc21` [Example 36, 3-Chloro-4-(N-(3,5-dichloropyridin-2-yl)-N-((1-methyl-1H-pyrrolo[2,3-b]pyridin-5-yl)methyl)sulfamoyl)benzoic acid] showed an IC50 of 1000 to 10000 nM.

Take `Cn1ccc2cc(CN(c3ncc(C(F)(F)F)cc3Cl)S(=O)(=O)c3ccc(C(=O)O)cc3)cnc21` [Example 37, 4-(N-(3-Chloro-5-(trifluoromethyl)pyridin-2-yl)-N-((1-methyl-1H-pyrrolo[2,3-b]pyridin-5-yl)methyl)sulfamoyl)benzoic acid]: the IC50 was under 1000 nM.

Compound `O=C(O)c1ccc(S(=O)(=O)N(Cc2cnc3ccccc3c2)c2ncc(C(F)(F)F)cc2Cl)cc1` [Example 38, 4-(N-(3-Chloro-5-(trifluoromethyl)pyridin-2-yl)-N-(quinolin-3-ylmethyl)sulfamoyl)benzoic acid] showed an IC50 of under 1000 nM.

In turn, `O=C(O)c1ccc(S(=O)(=O)N(Cc2ccc3ncccc3c2)c2ncc(C(F)(F)F)cc2Cl)cc1` [Example 39, 4-(N-(3-Chloro-5-(trifluoromethyl)pyridin-2-yl)-N-(quinolin-6-ylmethyl)sulfamoyl)benzoic acid] registered an IC50 of under 1000 nM.

(Values after patent US8829026B2, “Sulfamoyl benzoic acid heterobicyclic derivatives as TRPM8 antagonists” (RaQualia Pharma Inc., priority 2010, dated 2014).)
